The subject of data set [1] is NIH3T3 cells overexpressing the human EGF receptor. Nature of the data set: EGF-stimulated mitosis, flow cytometry. It is filed as cell-based, mouse. The note with it: 100 mM A10. Background: A flow cytometer gives signals particle by particle.
In the next data set the test system is A375 melanoma. Nature of the data set: SC xenograft in mice. The data set is classed as in vivo, human. As for the experimental part: (§1) Cell lines were grown in appropriate medium (see Appendix 1). Cells were harvested at or near confluency with 0.05% Trypsin-EDTA and pelleted at 450×g for 10 min. Pellets were resuspended in sterile PBS or media (without FBS) to a particular concentration and the cells were implanted into the hindflank of mice. Tumor growth was measured over 3 to 6 weeks using venier calipers. Tumor volumes were calculated as a product of length×width×height unless otherwise indicated. P values were calculated using the Students' t-test.
(§2) The mice were treated for three week.
In general terms: A xenograft is tissue or cells of one species grown in another, often human tumour cells in immunodeficient mice.

The test system of another data set is PC-3 prostate tumor. Nature of the data set: SC xenograft in mice. It is filed as in vivo, human. The settings on record: SCID. As for the experimental part:
as §1, §2

The next data set relates to D1B leukemia. Put plainly: SC syngeneic leukemia model in mice. The data set is classed as in vivo, murine. The note with it: DBA/2, 20 mg/kg/day, day 22. As to the method: as §1
For a further data set, the system named is spleen cells. Nature of the data set: Normal immune function in mice responding to a primary immunization. It is filed as in vivo, mouse. The settings on record: 20 mg/kg/day. The source says:
At the indicated times, animals were sacrificed, and the spleens were aseptically removed and placed into sterile medium. Spleens were processed into single cell suspensions by grinding between sterile frosted glass microscope slides. After a single wash to remove tissue debris, the spleen cells were resuspended in a hypotonic ammonium chloride buffer to lyse erythrocytes. Lymphocytes were washed and resuspended to the appropriate concentrations in complete medium, consisting of RPMI plus 10% heat-inactivated FBS, 2 mM glutamine, 50 μM β-mercaptoethanol, and penicillin-streptomycin. The responses of the lymphocytes were examined in the following assays according to accepted procedures (Current Protocols in Immunology. Coligan, J. E., Kruisbeek, A. M., Margulies, D. H., Shevach, E. M., Strober, W. (eds.) John Wiley and Sons, Inc., 1992).
The T-cell mitogen, ConA, and the T-cell independent B-cell mitogen, LPS, were added to 96-well round-bottom wells at the indicated concentrations. Lymphocytes from normal, vehicle-dosed, and drug-dosed animals were added at a final concentration of 2.5×10^5 /well. Cultures were usually set up in triplicate or quadruplicate. The plates were incubated at 37° C. in a humidified atmosphere containing 5% CO2 for the indicated times. Supernatants (approximately 100 μL) were carefully removed from the wells and stored at -80° C. for lymphokine and immunoglobulin analyses. To measure proliferation of the lymphocytes, 1 μCi of ^3 H-thymidine was added to each well, and the plates were incubated for 6 hr. The cultures were harvested onto glass fiber filters, and the incorporated radioactivity was quantitated by liquid scintillation counting (Betaplate, Wallac).
Lymphocytes from normal, vehicle-dosed, and drug-dosed animals were plated at 2.5×10^5 /well in round-bottom 96-well plates. Stimulator cells were then added at the same cell concentration. […] The plates were incubated for 3 to 4 days, at which time supernatants were harvested and the cultures were pulsed as described for the mitogen assays.
Supernatants from mitogen and MLR cultures were assayed for IL-2 and IL-6 content by the ability to support the growth of factor-dependent cell lines. HT-2 cells (10^4 /well, IL-2-dependent) and 7TD1 cells (2×10^3 /well, IL-6-dependent) were plated in 96-well flat-bottom plates, in 50 μL/well. Supernatants were added in 50 μL/well, and the plates were incubated overnight (HT-2) or four days (7TD1). Cellular proliferation was determined in the MTT colorimetric assay (Appendix 3.1).
Flat bottom 96-well EIA plates were coated with goat anti-mouse Ig antibodies (Southern Biotechnology) overnight at 4° C. The plates were blocked by the addition of PBS+1% BSA. After washing with PBS, supernatants from murine mitogen and MLR cultures were added and incubated at room temperature for 1 hr. The plates were washed with PBS, then HRP-labeled goat anti-mouse Ig antibodies were added and incubated at room temperature for 1 hr. The plates were washed and developed by the addition of substrate (ABTS).
BALB/c mice were immunized SC with 50 μg keyhole limpet hemocyanin (KLH) suspended in complete Freund's adjuvant (CFA); control mice were mock-immunized with an emulsion of phosphate-buffered saline (PBS) in CFA. […] On day 14, all mice were sacrificed, and their spleen cells were assayed. In addition , immune e responses to KLH and tetanus toxoid were measured as described in Appendix 5.

The next data set is described as follows: in vivo. Also noted: species or system rat. As to the method: Plasma was prepared and frozen in liquid nitrogen. Tissues and organs were resected and immediately frozen in liquid nitrogen. After the addition of an internal standard, plasma samples were acidified with HCl and extracted with acetonitrile. The acetonitrile fraction was evaporated to dryness in a vacuum centrifuge with heating and redissolved in methanol. Tissue and organ samples were homogenized according to the weight ratio of 1:5 (w:v) in 50 mM Tris-HCl, pH 7.4, at 20,000 rev/min, using a tissue homogenizer (Brinkmann Polytron Model PT3000). After the addition of an internal standard, the homogenate was acidified with HCl and then extracted with acetonitrile. The acetonitrile fraction was then extracted with an equal volume of diethyl ether. The ether fraction was evaporated to dryness in a vacuum centrifuge with heating and redissolved in methanol.
Samples for HPLC analysis were injected onto a Hewlett Packard Hypersil 5-μm C18 cartridge column (100×4.6 mm). The mobile phase was methanol:35 mM KH2 PO4 (pH 4.5) 55:45 containing 4 mM triethylamine. The flow rate was 1.2 mL/min. The compounds were monitored by UV absorption at 254 nm using a Hewlett-Packard diode-array detector (HP Model 1090). Plasma and tissue concentrations were determined from standard curves using peak area for quantitation. […] The internal standard used was 5-methyl-pyrazole-4-carboxylic acid-(4-trifluoromethyl)-anilide.
Table XXII. […] Plasma and brain samples were prepared and analyzed by HPLC as described in Appendix 6. All results were calculated by the method of internal standardization. NT= not tested, ND= not detected.

The nature of data set [2]: LD50 of A10 in BALB/c mice. The note with it: mouse, in vivo, ip. As for the experimental part:
All animals wee observed for 7 to 14 days after the last dose was administered. The LD50 was calculated from a plot of % mortality versus dose (log M) using a four parameter logistic equation.

A value given as a limit tells only on which side of the number the result lay.

For orientation: % Inhibition means the share of the control response that was lost under treatment. Higher therefore signals a strong effect. For orientation: Cmax means the maximum level reached in the sampled fluid or tissue. By LD50 is commonly meant the dose at which mortality reaches 50%.

With `Cc1oncc1C(=O)Nc1ccc(C(F)(F)F)cc1` [Compound A10, 5-methylisoxazole-4 carboxylic acid-(4-trifluromethyl)-anilide], the EGF-stimulated mitosis entry in data set [1] is “not able to inhibit EGF-stimulated mitosis”. Further, the tumor growth inhibition result in the data set with A375 melanoma (15 mg/kg/day, five days per week, from day 9, after three weeks) is listed as “about 40%”; with PC-3 prostate tumor (12 mg/kg/day (PBTE:D5W), five days per week, from day 15, after three weeks), “about 50%”. The “% Inhibition” value was 35% in the data set with A375 melanoma (SCID, 15 mg/kg/day, day 31, treatment from day 9); 53% in the data set with A375 melanoma (nu/nu, 20 mg/kg/day, day 31); 47% in the data set with PC-3 prostate tumor (12 mg/kg/day, day 36, treatment from day 15); 95% in the data set with D1B leukemia. Also, the IL-2 production in the data set with spleen cells (Allo), with spleen cells (ConA), in the data set on spleen cells (KLH) and in the data set with spleen cells (LPS) was 0 throughout. In addition, the IL-6 production with spleen cells (Allo), in the data set on spleen cells (ConA), in the data set with spleen cells (KLH) and in the data set on spleen cells (LPS) was 0 each time. The Ig production in the data set with spleen cells (Allo), in the data set on spleen cells (ConA), with spleen cells (KLH) and in the data set on spleen cells (LPS) was 0 throughout. In addition, in the data set “in vivo” (IP A10 80 mg/kg single dose), the “time detected in plasma” value is “up to 8 hr”. Also, the “time by which A10 converted to B11” value in the data set “in vivo” (IP A10 80 mg/kg, first time point analyzed) was no more than 2 h. Also, the concentration in the data set “in vivo” (rat, plasma, ip, 80 mg/kg) peaked (Cmax) at 5000 ng/mL. Besides, in data set [2], the LD50 was found to be 94 mg/kg.

The record behind these values is patent US6331555A, “Treatment of platelet derived growth factor related disorders such as cancers” (priority 1999, dated 2001).
